Test [1] has as its system biofilm of A. naeslundi. Nature of the test: Biofilm reduction by photosensitizer plus light. The class given is cell-based. The note with it: 0.1% photosensitizer in the presence of light. Here is the method: Bacterial biofilms (24 h old) were treated with the photosensitizers or photo-triggered actives described in the tables below at a concentration less than their minimum inhibitory concentration (MIC). The actives were either pre-incubated before light exposure for 2 s to 15 min, typically less than 2 min, or administered at the same time the biofilm was exposed to the light. The bacteria were irradiated at a set wavelength for 2 s to 15 min (typically less than 2 min) at an energy dose between 1-450 J/cm^2. Optical power densities typically ranged from 1-500 mW/cm^2. Light was either pulsed or provided in one continuous light exposure. Pulsed light treatments were preferred for high optical energy treatments.
On a biofilm of A. naeslundi, the impact of four “photosensitizers” (0.1% concentration) in the presence of light was evaluated. MIC typically ranged from 0.0001% (w/v) to 1% (w/v). The percent biofilm reduction is tabulated below.

In test [2] the test system is TNFα of HEPM cells stimulated by IL-1β. Description: Cytokine (TNFα) concentration in IL-1β stimulated cell culture after light plus dye. The note with it: Fast Green at 1000 ppm combined with light at 625 nm for 2 minutes, 9 mW/cm^2, 1.1 J/cm^2. The class given is cell-based, human. The procedure: Cells used in this example include human embryonic palatal mesenchymal (HEPM) cells and oral keratinocytes OBA9 cells. The embodiments also can be used with other cells such as human gingival fibroblasts (HGF). Cells were seeded in 24-well plates and cultured until reaching a confluence above 80%. The confluent-stage cells were treated with stimulants such as IL-1β followed by light irradiation alone, or light irradiation combined with GRAS photosensitizing dye. The cells were either pre-incubated in photosensitizing dye before light exposure, or administered at the same time of light exposure. The cells were incubated in photosensitizing dyes for varied amounts of time, the concentration of photosensitizing dyes were varied, and the cell were irradiated with light for varied amounts of time per exposure, as well as irradiation either one time or multiple times, as described below. After irradiation, the cells were incubated at 37° C. The cell culture media was collected after a certain amount of time for cytokine analysis.
The results tabulated below reveal that visible light (various wavelength, 380-700 nm) alone and photosensitizing dye irradiated with visible light (various wavelength, 380-700 nm) have anti-inflammation effect. […]

Entries after “also recorded” stand apart in the source; their conditions may differ.

With `COc1cc(S(=O)(=O)[O-])c(C)cc1N=Nc1c(O)ccc2cc(S(=O)(=O)[O-])ccc12.[Na+].[Na+]` [Allura Red, Allura Red AC], the “Biofilm reduction compared to light alone (in words)” value (“Biofilm reduction” for short) in test [1] is on record as “increased biofilm reduction compared to light alone”.
Turning to `CCN(Cc1cccc(S(=O)(=O)[O-])c1)c1ccc(C(=C2C=CC(=[N+](CC)Cc3cccc(S(=O)(=O)[O-])c3)C=C2)c2ccc(O)cc2S(=O)(=O)[O-])cc1.[Na+].[Na+]` [Fast Green, Fast Green FCF], in test [2], the “Effect on TNFα concentration (in words)” value is on record as “can decrease pro-inflammation cytokine TNFα concentration; also recorded: can reduce concentration of TNFα”. For the same compound, the “Biofilm reduction” value in test [1] is “increased biofilm reduction compared to light alone”.
For the compound `CN(C)c1ccc(C(=C2C=CC(=[N+](C)C)C=C2)c2c(O)c(S(=O)(=O)[O-])cc3cc(S(=O)(=O)[O-])ccc23)cc1.[Na+]` [Lissamine Green B], the “Biofilm reduction” value in test [1] is reported as “increased biofilm reduction compared to light alone”.
On the same count and under the same terms, to `Cc1cc2nc3c(=O)[nH]c(=O)nc-3n(C[C@H](O)[C@H](O)[C@H](O)CO)c2cc1C` [Riboflavin] belongs “increased biofilm reduction compared to light alone”.
The same measure, in the same setting: with `O=C([O-])C1=NN(c2ccc(S(=O)(=O)[O-])cc2)C(=O)C1N=Nc1ccc(S(=O)(=O)[O-])cc1.[Na+].[Na+].[Na+]` (stereo not drawn) [Tartrazine] the entry was “increased biofilm reduction compared to light alone”.

Source of the values: patent publication US20120270183A1, “METHOD OF TREATING AND/OR PREVENTING CONDITIONS CAUSED BY MICROORGANISMS USING AN ORAL LIGHT DEVICE” (COLGATE-PALMOLIVE COMPANY, priority 2009, published 2012).
